According to PubChem BioAssay (NCI):
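Compound exposure: 48 hours, 5 concentrations, 96-well plates. GI50 marks 50% less growth. TGI: total growth inhibition.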

Key:
Assay in all cases: inhibition of tumour cell growth, NCI panel, 48 h
[1] = tested on: BT-549 breast
[2] = tested on: DU-145 prostate
[3] = tested on: MDA-N
[4] = tested on: DMS 114 small cell lung
[5] = tested on: RXF-631 renal
[6] = tested on: DLD-1 colon
[7] = tested on: HOP-18 NSCLC
[8] = tested on: M19-MEL melanoma

Row | SMILES | TGI [1] | TGI [2] | TGI [4] | TGI [6] | TGI [7] | TGI [8] | GI50 [2] | GI50 [1] | other results
1 | COc1ccc(-c2cc(-c3cc(C)cc(Br)c3O)no2)cc1 | 57.1 µM | 36.2 µM |  |  |  |  |  |  | TGI [3]: > 100 µM
2 | O=C(/C=C/c1ccc(Cl)c(Cl)c1)c1ccc2ccccc2c1 |  |  | > 100 µM | > 100 µM | > 100 µM | > 100 µM |  |  | TGI [5]: > 100 µM
3 | Nc1ccccc1/C(O)=C1/CCOC1=O |  |  | > 100 µM | > 100 µM |  | > 100 µM |  |  | 
4 | COc1cc(/C=C/c2ccc(OC)c(O)c2)cc(OC)c1 |  |  | 17.9 µM | 24.7 µM |  | 30.9 µM |  |  | 
5 | O=C(CC(=O)n1nc(-c2ccccc2)c(N=Nc2ccc(Cl)cc2)c1-c1ccccc1)Nc1ccc(Cl)cc1 |  |  | > 56.9 µM | 44.7 µM | > 100 µM | > 76.2 µM |  |  | TGI [5]: > 100 µM
6 | CNC(=S)/N=C(\N)N(C)C |  |  | > 100 µM | > 100 µM | > 100 µM | > 100 µM |  |  | 
7 | CCCCC(CC)COC(=O)C[N+](C)(C)CCOC(c1ccccc1)c1ccccc1 (stereo unspecified) |  | 18 µM |  |  |  |  | 5.53 µM |  | 
8 | COc1cc(OC)c(C(=O)/C=C/c2cccc(C(F)(F)F)c2)c(OC)c1 | 2.84 µM | 6.08 µM |  |  |  |  | 1.73 µM | 1.08 µM | 
9 | COc1cc2[nH]c3c(c2cc1OC)CCN[C@]31CC[C@]2(CC3c4c(cc(OC)c(O)c42)CCN3C)C[C@H]1OC (stereo partly specified) |  |  | 31.4 µM | 81 µM | 46.7 µM | 32.9 µM |  |  | TGI [5]: 25.7 µM
10 | CCOC(=O)C1CCN(S(=O)(=O)/N=C2/NC(=O)NC2=C(Cl)Cl)CC1 | 3.65 µM | 15.1 µM |  |  |  |  | 2.37 µM | 1.68 µM | 
11 | CCc1nc2cc(F)c(/C=C/C(=O)NO)cc2c(=O)n1CCc1ccccc1 | 12.6 µM | 10.5 µM |  |  |  |  | 0.358 µM | 0.377 µM | 
12 | CCCC1=C(CC)C(C(=O)Nc2c(C)cccc2C)=NC(S)N1 (stereo unspecified) |  |  | > 100 µM | > 100 µM | > 100 µM | > 100 µM |  |  | 
13 | C=C1C(=O)O[C@H]2[C@H]1CC/C(COC(=O)NCCCCNC(=O)OC/C1=C/CC[C@@]3(C)O[C@H]3[C@H]3OC(=O)C(=C)[C@@H]3CC1)=C\CC[C@@]1(C)O[C@@H]21 | 3.63 µM | 10.5 µM |  |  |  |  | 3.21 µM | 1.6 µM | 
14 | c1cnn(CN(Cn2cccn2)Cn2cccn2)c1 |  |  | > 100 µM | > 100 µM |  | > 100 µM |  |  | 
15 | COc1ccc(/C=C/c2c(C(=O)/C=C/c3ccccc3)c(C)nc3ccccc23)cc1 | 5.18 µM | 3.16 µM |  |  |  |  | 1.68 µM | 2 µM | 
16 | CCCC(CCC)NCC(O)c1cc(-c2ccc(C(F)(F)F)cc2)nc(C(F)(F)F)c1 (stereo unspecified) |  | 3.39 µM |  |  |  |  | 1.94 µM |  | 
17 | COc1ccc(C(=O)c2cc(C)c(OC)c(C)c2)c(OC)c1O | > 62 µM | > 100 µM |  |  |  |  | 0.0369 µM | 0.0272 µM | 
18 | Cc1cc(C)c(NC(=O)c2sc3nc4c(cc3c2N)C(=O)CCC4)c(C)c1 | > 35.4 µM | > 100 µM |  |  |  |  | 3.36 µM | 7.29 µM | 
19 | O=C(O)CNS(=O)(=O)c1ccc(NC(=O)c2ccc([N+](=O)[O-])cc2)cc1 |  |  |  | > 100 µM | > 100 µM | > 100 µM |  |  | TGI [5]: > 100 µM

Row | SMILES | TGI [1] | TGI [2] | TGI [4] | TGI [6] | TGI [7] | TGI [8] | GI50 [2] | GI50 [1] | other results
20 | S=c1ssc(N2CCOCC2)c1Cl |  | 56.5 µM |  |  |  |  | 20.3 µM |  | 
21 | COc1ccc(CN2CC(C)(C)C2=O)c(OC)c1 |  |  | > 100 µM |  | > 100 µM | > 100 µM |  |  | TGI [5]: > 100 µM
22 | Cc1cc2nc(C=C(C(F)(F)F)C(F)(F)F)oc2cc1C | 6.13 µM | > 10 µM |  |  |  |  |  |  | TGI [3]: > 10 µM
23 | O=C(Nc1n[nH]c2cc(-c3ccccc3)ccc12)C1CC1 | > 25 µM | > 25 µM |  |  |  |  | 9.28 µM | 15.5 µM | 
24 | O=C1c2cccnc2-c2nc(-c3ccc(Cl)cc3)cc3c2c1nc1ccccc13 | 51.1 µM | > 100 µM |  |  |  |  | 75.4 µM | 18 µM | GI50 [3]: 40 µM; TGI [3]: > 100 µM
25 | c1ccc(Sc2ccc(Cc3nc4cc5ccccc5cc4[nH]3)cc2)cc1 | > 84.9 µM | > 100 µM |  |  |  |  | 23 µM | 16.4 µM | 
26 | CC1=CC(C)(C)N=C2SC(c3ccc(N)cc3)=NN12 |  |  | > 100 µM | > 68.9 µM | > 100 µM | > 100 µM |  |  | TGI [5]: > 100 µM
27 | CCCCNC1CCCCC[C@H]1O (stereo partly specified) |  |  | > 100 µM | > 100 µM | > 100 µM | > 100 µM |  |  | 
28 | O=C(Nc1cc(Cl)c(Cl)cc1Cl)C(=O)C1C(=O)NC(=S)NC1=O |  |  | > 100 µM | > 100 µM | > 100 µM | > 100 µM |  |  | TGI [5]: > 100 µM
29 | COC(=O)C(Cc1nc2ccccc2[nH]c1=O)C(NO)C(=O)Nc1c(Cl)cc([N+](=O)[O-])cc1Cl (stereo unspecified) |  |  | 54.8 µM | > 100 µM |  |  |  |  | 
30 | CN1CCc2nc(N)nc(-c3nc(N)nc4c3CN(C)CC4)c2C1 | > 100 µM | > 100 µM |  |  |  |  |  |  | TGI [3]: > 100 µM
31 | Cc1cc(C(=O)Nc2ccc3cc(CN4CCOCC4)ccc3n2)c(C)n1-c1ccccc1 | 5.84 µM | 35.7 µM |  |  |  |  | 3.6 µM | 1.17 µM | 
32 | CCOC(=O)/C(C)=C(/O)C(=O)OCC |  |  | > 100 µM | > 100 µM | > 100 µM |  |  |  | TGI [5]: > 100 µM
33 | O=C(CCc1nc(=S)[nH][nH]1)Nc1ccccc1Cl |  |  | > 100 µM | > 100 µM | > 100 µM | > 100 µM |  |  | 
34 | Cc1nnc(NS(=O)(=O)c2ccc(N=Nc3cc(N=Nc4ccc(S(=O)(=O)Nc5nnc(C)s5)cc4)c4c(NC(=O)C(Cl)Cl)cccc4c3OC(=O)C(Cl)Cl)cc2)s1 (tested in a mixture with another compound) |  |  | 62.5 µM | 42.9 µM |  | 57.2 µM |  |  | TGI [5]: > 100 µM
35 | CCCN(CCC)C(=O)c1c([N+](=O)[O-])cc(C(F)(F)F)cc1[N+](=O)[O-] |  |  |  |  |  | 27 µM |  |  | 
36 | COc1cc2ncnc(-n3ncc4cc(NC(=O)Nc5ccccc5)ccc43)c2cc1OC | 12 µM | 11.4 µM |  |  |  |  | 0.867 µM | 1.55 µM | 
37 | CC(C)c1c(O)c(O)c2c(c1O)C(=O)C(O)=C1C(C)(C)CCC[C@@]12C | 13 µM | 18.1 µM |  |  |  |  |  |  | 
